Source: patent US6544986B2, “Pyridones and their use as modulators of serine hydrolase enzymes” (Dalhousie University, priority 2000, dated 2003)
Entries after “also recorded” stand apart in the source; their conditions may differ.

Tests used:
human AChE = human AChE (Homo sapiens, UniProt P22303); assay: Esterase activity assay (modified Ellman), AChE with acetylthiocholine; type: biochemical; settings: substrate acetylthiocholine; for Ki: read-out: Esterase Ki AChE(h)
Experimental: (§1) The esterase activity of BuChE or AChE was determined by a modification of the method described by Ellman et al. (32), using a buffered 5,5′-dithiobis (2-nitrobenzoic acid) (DTNB) solution. Stock DTNB solution consisted of 10 mM DTNB with 18 mM sodium bicarbonate in 0.1 M phosphate buffer, pH 7.0. Working DTNB solution was prepared by mixing 3.6 mL of 10 mM stock DTNB solution with 96.4 mL of 0.1 M phosphate buffer at pH 8.0. The assay was carried out by mixing 2.7.mL of buffered DTNB working solution (pH 8.0), 0.1 mL of BuChE or AChE in 0.005% aqueous gelatin (1 U/mL), and 0.1 mL of 50% aqueous acetonitrile, or a solution of a 2-pyridone compound of the invention in the same solvent, in a quartz cuvette of 1 cm path-length. Absorbance of this solution was calibrated to zero and the reaction was commenced by adding 0.1 mL of aqueous acetylthiocholine (AcSCh) or butyrylthiocholine (BuSCh) solutions of varying concentration (between 1.9 mM and 15 mM). The final volume was always 3.0 mL. The reactions were carried out at room temperature. The rate of change of absorbance (ΔA/min), reflecting the rate of hydrolysis of BuSCh or AcSCh, was recorded every 5 seconds for a total of 1 minute using a Milton-Roy uv-visible spectrophotometer set at λ=412 nm.
(§2) The slopes of Lineweaver-Burk plots versus Log of inhibitor concentration were used to determine the inhibitor constant Ki.
(§3) The effect of increasing amount of exemplified 2-pyridone compounds (Examples 1 to 10) on the activity of human BuChE and AChE is shown in FIGS. 1 to 10.
(§4) The compounds of Examples 1 to 9 inhibited BuChE and AChE to varying degrees. Graphs of the slopes obtained from Lineweaver-Burk double reciprocal graphs versus log of the concentration of each compound gave the inhibition constant Ki for each compound.

[1] = system: trypsin-like enzymatic activity associated with BuChE; assay: Trypsin activity assay (BAPNA hydrolysis, HPLC of PNA), trypsin-like activity associated with BuChE; type: biochemical, human; settings: substrate BAPNA, Tris buffer pH 8.0, 40° C.; FIG. 11
Experimental: (§5) The effect of 2-pyridone compounds on trypsin-like enzymatic activity associated with BuChE and that of human trypsin was determined using Nα-benzoyl-DL-arginine-p-nitroanilide (BAPNA) as the substrate. The same procedure was used to study the effect of the compounds on BuChE-trypsin mixture. Reactions were performed in 0.06 M Tris buffer at pH 8.0. […] The incubations were carried out in 1.5 mL Eppendorf tubes by mixing 0.85 mL of 0.06 M Tris buffer (pH 8.0), 0.07 mL of up to 10 mM BAPNA, 0.03 mL of 50% aqueous acetonitrile, or a solution of 2-pyridone compound (typically, a 5 mM working solution) in the same solvent, and 0.05 mL of the enzyme solution (0.5-1.5 U of trypsin in 1 mM hydrochloric acid, or up to 5.0 U of BuChE in 0.005% aqueous gelatin). The final volume of the assay mixture was always 1.0 mL. The enzyme reaction mixture was incubated at 40° C. for 15-45 hours. The use of 1.5 U of trypsin gave an amount of p-nitroaniline (PNA) produced upon cleavage of BAPNA by trypsin after 22 hours of incubation that was similar to the amount of product formed by trypsin-like activity associated with 5 U of BuChE under the same conditions.
(§6) The concentration of the PNA was determined by means of high performance liquid chromatography (HPLC). […] The rate of formation of PNA was calculated by using the following formula: […]

human trypsin = assay: Trypsin activity assay (BAPNA hydrolysis, HPLC of PNA), trypsin; type: biochemical; settings: substrate BAPNA, Tris buffer pH 8.0, 40° C.; FIG. 12
Experimental: as §5, §6

human BuChE = human BuChE (Homo sapiens, UniProt P06276); assay: Esterase activity assay (modified Ellman), BuChE with butyrylthiocholine; type: biochemical; settings: for Ki: substrate butyrylthiocholine, pH 8.0, room temperature, from slopes of Lineweaver-Burk plots vs log concentration, read-out: Esterase Ki BuChE(h)
Experimental: as §1, §2, §3, §4

[2] = pH 8.0, room temperature, from slopes of Lineweaver-Burk plots vs log concentration

human AChE, sequence (P22303 32-614): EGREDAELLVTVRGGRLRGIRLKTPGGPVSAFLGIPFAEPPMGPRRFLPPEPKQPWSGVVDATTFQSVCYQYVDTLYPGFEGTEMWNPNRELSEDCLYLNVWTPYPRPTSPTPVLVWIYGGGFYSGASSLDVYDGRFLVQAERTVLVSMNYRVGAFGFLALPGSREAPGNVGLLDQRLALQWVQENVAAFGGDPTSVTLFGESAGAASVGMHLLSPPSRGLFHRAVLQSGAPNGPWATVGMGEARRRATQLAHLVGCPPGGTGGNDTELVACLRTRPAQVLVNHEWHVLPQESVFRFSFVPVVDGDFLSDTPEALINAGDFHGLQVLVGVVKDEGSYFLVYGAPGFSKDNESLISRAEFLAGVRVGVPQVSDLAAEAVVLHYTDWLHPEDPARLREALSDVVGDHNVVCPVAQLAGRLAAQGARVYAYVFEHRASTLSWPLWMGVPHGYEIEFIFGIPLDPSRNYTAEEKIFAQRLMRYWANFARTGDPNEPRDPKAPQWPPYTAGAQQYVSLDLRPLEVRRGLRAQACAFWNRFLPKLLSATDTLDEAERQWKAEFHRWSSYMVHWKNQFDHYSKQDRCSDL
human BuChE, sequence (P06276 29-602): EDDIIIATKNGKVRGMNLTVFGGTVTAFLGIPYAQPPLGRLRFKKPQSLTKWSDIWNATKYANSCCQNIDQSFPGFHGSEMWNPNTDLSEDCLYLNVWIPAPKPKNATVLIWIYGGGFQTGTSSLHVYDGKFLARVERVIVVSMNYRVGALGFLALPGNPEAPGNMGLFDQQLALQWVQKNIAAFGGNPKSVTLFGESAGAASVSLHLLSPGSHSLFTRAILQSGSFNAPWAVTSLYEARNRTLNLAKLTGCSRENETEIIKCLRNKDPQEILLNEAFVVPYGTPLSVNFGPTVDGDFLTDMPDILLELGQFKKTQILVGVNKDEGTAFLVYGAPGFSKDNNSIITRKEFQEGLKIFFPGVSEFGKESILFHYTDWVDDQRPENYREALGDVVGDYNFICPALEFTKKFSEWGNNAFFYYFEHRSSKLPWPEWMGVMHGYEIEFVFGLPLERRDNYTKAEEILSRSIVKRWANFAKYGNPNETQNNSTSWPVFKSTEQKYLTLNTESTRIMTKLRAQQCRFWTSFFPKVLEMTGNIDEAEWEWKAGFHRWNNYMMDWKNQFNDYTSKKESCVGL

Structure (SMILES): O=C(c1ccc(=O)[nH]c1)N(Cc1ccccc1)Cc1ccccc1 [Example 1, 5-(N,N-Dibenzyl)aminocarbonyl-2-pyridone]
- Ki (human AChE; [2]): 260 µM
- effect on trypsin-like activity associated with BuChE (rate of hydrolysis of BAPNA) [1]: increased the rate of hydrolysis; also recorded: considerably enhanced
- effect on enzymatic activity of trypsin itself (human trypsin): do not have direct effect on trypsin alone
- Ki (human BuChE): 37.5 µM

Structure (SMILES): CC(C)N(C(=O)c1ccc(=O)[nH]c1)C(C)C [Example 2, 5-(N,N-Diisopropyl)aminocarbonyl-2-pyridone]
- Ki (human AChE; [2]): 131 µM
- Ki (human BuChE): 1430 µM

Structure (SMILES): CCN(CC)C(=O)c1ccc(=O)[nH]c1 [Example 3, 5-(N,N-Diethyl)aminocarbonyl-2-pyridone]
- Ki (human AChE; [2]): 7600 µM
- Ki (human BuChE): 1300 µM

Structure (SMILES): CCN(CC)Cc1ccc(=O)[nH]c1 [Example 4, 5-(N,N-Diethyl)aminomethyl-2-pyridone]
- Ki (human AChE; [2]): 4770 µM
- inhibitory activity towards each cholinesterase studied (comparison) (human BuChE; BuChE versus AChE): equal inhibitory activity
- Ki (human BuChE): 3890 µM

Structure (SMILES): O=C(NC1CCCCC1)c1ccc(=O)[nH]c1 [Example 7, 5-(N-Cyclohexyl)aminocarbonyl-2-pyridone]
- inhibition of the activity of AChE on acetylthiocholine (in words) (human AChE): no inhibition
- Esterase Ki AChE(h) (human AChE; [2]): Insignificant inhibition
- Ki (human BuChE): 137 µM
